One series relates to mdr1. Kind of series: PXR target gene expression in pxr -/- mice after FKK6 gavage. The series is classed as in vivo, mouse. Particulars: pxr-/- (PXR knockout), mouse, oral, 500 μM, 5 doses (60 h), mean. As to the method: (§1) (Scheer et al, 2010) were administered 10% DMSO (n = 3) or FKK6 (n = 3) in 3 or 5 doses, with each dose interval of 12 h. Each gavage dose volume was 100 μl. 2–4 h after the dosing period, mice were sacrificed, and tissues were harvested for further analysis. The mouse studies were performed three independent times over an 18‐month period. All purchased mice were acclimatized in the Einstein vivarium for ~ 2 weeks before experiments started. […]. The room temperature was maintained at 25 ± 2°C with 55 ± 5% humidity. All studies were approved by the Institute of Animal Studies at the Albert Einstein College of Medicine, INC (IACUC # 20160706, 20160701 and preceding protocols), and specific animal protocols were also approved by additional protocols (IACUC# 20170406, 20170504) and Animal Care and Use Review Office (ACURO) of the US Army Medical Research and Materiel Command (PR160167, W81XWH‐17‐1‐0479). […]
(§2) Mouse small, large intestine and liver samples were collected and total RNAs were […]
(§3) isolated. […] Each tissue PCR was […]
(§4) repeated in quadruplicate. The expression was normalized to internal control, GAPDH. ( b,d) The histograms show mean (95 %CI) values, c, mean (SD) and two way ANOVA followed with Tukey's post hoc test. The entire experiment was repeated n = 3 for reproducibility. The data shown is one representative experiment .

The test system of series [1] is Cyp3a11. Described as above. The series is classed as in vivo, mouse. As to conditions: pxr-/- (PXR knockout), mouse, oral, 500 μM, 5 doses (60 h), mean. On the procedure: as §1, §2, §3, §4
A further series relates to hPXR mice. Kind of series: PXR target gene expression in hPXR mice (mice expressing the human PXR gene) after FKK6 gavage. The series is classed as in vivo, mouse. As to conditions: for mdr1 fold expression / Cyp3a11 fold expression: Fig 4f. On the procedure: as §1, §2, §3, §4
The subject of series [2] is Cyp3a11. Described as above. It counts as in vivo, mouse. As to conditions: both sexes, C57BL/6-Nr1i2tm1(NR1I2)Arte (hPXR mice), mouse, 500 μM, 5 doses (60 h), individual mice. As to the method: as §1, §2, §3, §4
The test system of a further series is RXR. Kind of series: [11,12-3H(N)] 9-cis retinoic acid binding competition assay (RXR ligand binding), rat liver nuclear extracts. Particulars: 39.94 nM compound, 0.66 nM radioligand. As to the method:
8), 50 mM NaCl, 0.1 mM EDTA, 1 mM DTT, 1 mM PMSF, and 1% DMSO. The substrate is 3H-CoA (acetyl coenzyme A) and the incubation time is for 1 h at 30° C. The radioactivity in mixture is detected on washed filter paper using a scintillation counter. The Histone Deacetylase (HDAC) fluorescent activity assay (HDAC1-3) is based on the using 2X purified human enzyme mixed with the reaction buffer (50 mM Tris-HCl pH 8, 137 mM NaCl, 2.7 mM KCl, and 1 mM MgCl2, 1 mg/mL fresh BSA and 1% fresh DMSO) and then compounds (in 100% DMSO) are titrated in using Acoustic Technology.
The 2X HDAC substrate is a fluorogenic acetylated peptide from p53 (residues 379 - 38 2 RHKK(Ac)AMC) which is mixed in with the enzyme-compound complex and incubated for 1-2 h at 30 °C. In the development step, a proprietary developer with trichostatin A (or TMP269) is added to stop the reaction and to generate fluorescent color which is read using an EnVision Multilabel Plate Reader (Perkin Elmer) (Ex 360 nm/ Em 460 nm). For all enzyme activity assays, the percentage of enzyme activity (relative to DMSO controls) and IC50 values were calculated using GraphPad Prism 4 program (sigmoidal dose response equations).
Isolation of cell nuclei. Rat liver nuclear fraction was prepared from rat livers by the procedure established and optimized previously 19. […]

[3] abbreviates: 500 μM, 5 doses (60 h), individual mice.

Several values for one entry are separate records, joined by “and”; a condition that tells them apart may be missing. Equal values may be shown once. Read-outs that look alike come from different tables or passages of the source.

Consider `C#CCC(O)(c1ccncc1)c1cc2ccccc2n1S(=O)(=O)c1ccccc1` (centres unmarked) [FKK6], for which the fold induction at 60 h, 500 µM was 0.71 in the series on mdr1 (large intestine, read-out: mdr1 fold induction, Large Intestine); 1.22 with mdr1 (liver, read-out: mdr1 fold induction, Liver); 1.16 with mdr1 (small intestine, read-out: mdr1 fold induction, Small Intestine); 0.36 in the series with Cyp3a11 [1] (large intestine, × DMSO, read-out: Cyp3a11 fold induction, Large Intestine); 1.54 in the series on Cyp3a11 [1] (liver, read-out: Cyp3a11 fold induction, Liver); 0.25 in the series with Cyp3a11 [1] (small intestine, × DMSO, read-out: Cyp3a11 fold induction, Small Intestine). Further, the fold induction at 60 h, 500 µM came out at 1.81 with Cyp3a11 [2] (in vivo, read-out: Cyp3a11 fold induction, Liver); 1.85 with Cyp3a11 [2] (in vivo, read-out: Cyp3a11 fold induction, Small Intestine); 0.87 in the series with Cyp3a11 [2] (large intestine, oral, read-out: Cyp3a11 fold induction, Large Intestine); 0.75 in the series on Cyp3a11 [2] (liver, oral, read-out: Cyp3a11 fold induction, Liver); 0.85 in the series on Cyp3a11 [2] (small intestine, oral, read-out: Cyp3a11 fold induction, Small Intestine). The “Cyp3a11 fold induction, Large Intestine” value in the series on hPXR mice (setting [3]) amounted to 0.5 fold. For the same molecule, the “Cyp3a11 fold induction, Liver” value with hPXR mice (setting [3]) stood at 0.51 fold. In addition, the “Cyp3a11 fold induction, Small Intestine” value in the series with hPXR mice (setting [3]) amounted to 0.81 fold. For the same molecule, the “mdr1 fold induction, Large Intestine” value with hPXR mice (setting [3]) was 2.03 fold. Further, the “mdr1 fold induction, Liver” value in the series on hPXR mice (setting [3]) was “distinct increase and 4.6 fold and 5.65 fold and 2.73 fold”. Also, in the series with hPXR mice (setting [3]), the “mdr1 fold induction, Small Intestine” value is 1.7 fold and 2.02 fold. In addition, the mdr1 fold expression in the series with hPXR mice (Large Intestine) was 2.55 fold; in the series on hPXR mice (Liver) it was 0.93 fold and 1.05 fold and 1.28 fold; with hPXR mice (Small Intestine) it was 1.46 fold and 1.56 fold and 1.59 fold. Also, the Cyp3a11 fold expression with hPXR mice (Liver) is 2.01 fold and 1.78 fold and 1.23 fold; in the series with hPXR mice (Small Intestine), 3.71 fold and 3.81 fold and 4.42 fold.

On to `O=S(=O)(c1ccccc1)n1c(C(O)c2ccncc2)cc2ccccc21` (racemic) [FKK1], for which the “displacement of [3H]-9-cis-retinoic acid” value in the series on RXR is listed as “significant displacement”.
